# Data: publication PMC10712727, “Safety, Tolerability, and Pharmacokinetics of Senaparib, a Novel PARP1/2 Inhibitor, in Chinese Patients With Advanced Solid Tumors: A Phase I Trial” (The Oncologist, 2023)
# Assay: Plasma pharmacokinetics in continuous dosing period, cycle 1 day 15 steady state (HPLC-MS/MS)
# Assay type: in vivo, human
# Details: for Rac, accumulation ratio (mean±SD) / Vss/F (mean±SD): cycle 1 day 15
# Protocol: Dose escalation was conducted using a modified Fibonacci 3 + 3 method (Supplementary Fig. […] At a given dose level, each patient received a single dose of senaparib followed by a 7-day washout period. They then entered a continuous dosing period to confirm the safety and PK profile, in which they received senaparib QD from day 1 to day 21 of each 3-week cycle. Progression to the next higher dose required approval from the Data Safety Monitoring Committee (DSMC) upon review of the safety and PK data of the previous dose. A 50-mg twice-daily (BID) dosing group was added (planned enrollment, n = 6 patients) based on a DSMC review of the safety, PK, and efficacy analysis of the completed QD dose groups in the phase I clinical trial of senaparib dose escalation in Australia (NCT03507543), which commenced prior to the start of this trial. Safety was assessed by recording the incidence of dose-limiting toxicities (DLTs), and the incidence, nature, severity (graded per National Cancer Institute Common Terminology Criteria for Adverse Events version 4.03 [NCI CTCAE v4.03][18]), and relatedness of treatment-emergent adverse events (TEAEs). DLTs were predefined toxicities (Supplementary Table S2) recorded over the 7 days following the single-dose administration of senaparib and during the first treatment cycle (day 1-day 21) for each dose group in the dose-escalation period only. […] Senaparib PK parameters were derived from blood samples collected from patients after the single administration, and at regular intervals during the first cycle of the dose-escalation and dose-expansion periods. Plasma concentrations of senaparib were determined using high-performance liquid chromatography-tandem mass spectrometry. […] There was no formal sample size calculation based on statistical hypothesis testing for this study; the planned enrolment was approximately 30-60 patients across the dose-escalation and dose-expansion cohorts. The actual number in the dose-escalation cohort was adjusted based on the number of dose cohorts required for the modified Fibonacci dose-escalation design and the determined MTD. Definitions for all analysis populations (safety, DLT, PK, and efficacy [intent-to-treat, ITT]) are provided in Supplementary Table S2. No statistical tests were performed; patient demographic and baseline characteristics, safety/tolerability, PK parameters, and efficacy were evaluated descriptively. ORR and DCR and their 95% CIs were calculated for each group using the exact probability method. Kaplan-Meier statistics were used to estimate DOR and PFS, and their 95% CIs for each dose group separately. Dose linearity was explored based on the single-dose data of area under the time-concentration curve (AUC) and maximum plasma concentration (Cmax) using the power model (Y = α × dose β) for the dose range 2-80 mg on a log-transformed scale. The following criterion was used to determine whether dose proportionality was met: if the (2-sided) 90% CI for β was wholly contained within the interval (1 + log(0.5)/log(r), 1 + log(2)/log(r)), then dose proportionality was supported. Here, r was defined as the ratio of the highest to lowest dose. All data analyses were carried out using SAS EG7.1 or higher or (for PK parameters) WinNonlin 7.0 or higher.
smiles,measurement,setting,value
O=C(c1cc(Cn2c(=O)[nH]c(=O)c3c(F)cccc32)ccc1F)N1CCN(c2ncccn2)CC1 [Senaparib],"Rac, accumulation ratio (mean±SD)",2 mg QD (n/N = 1/1),1.5
same,Vss/F (mean±SD),2 mg QD (n/N = 1/1),16.6 L
same,"Rac, accumulation ratio (mean±SD)",5 mg QD (n/N = 3/3),1.4±0.4
same,Vss/F (mean±SD),5 mg QD (n/N = 3/3),19.8 ± 7.7 L
same,"Rac, accumulation ratio (mean±SD)",10 mg QD (n/N = 3/3),1.4±0.2
same,Vss/F (mean±SD),10 mg QD (n/N = 3/3),24.9 ± 4.3 L
same,"Rac, accumulation ratio (mean±SD)",20 mg QD (n/N = 5/5),1.2±0.2
same,Vss/F (mean±SD),20 mg QD (n/N = 5/5),18.1 ± 2.5 L
same,"Rac, accumulation ratio (mean±SD)",40 mg QD (n/N = 3/3),1.1±0.1
same,"Rac, accumulation ratio (mean±SD)",50 mg BID (n/N = 4/4),1.8±0.4
same,Vss/F (mean±SD),50 mg BID (n/N = 4/4),39.9 ± 3.4 L
same,"Rac, accumulation ratio (mean±SD)",60 mg QD (n/N = 5/5),1.1±0.0
same,Vss/F (mean±SD),60 mg QD (n/N = 5/5),32.1 ± 13.0 L
same,"Rac, accumulation ratio (mean±SD)",80 mg QD (n/N = 9/9),1.2±0.1
same,Vss/F (mean±SD),80 mg QD (n/N = 9/9),38.8 ± 23.5 L
same,"Rac, accumulation ratio (mean±SD)",100 mg QD (n/N = 20/20),1.2±0.1
same,Vss/F (mean±SD),100 mg QD (n/N = 20/20),40.1 ± 21.9 L
same,"Rac, accumulation ratio (mean±SD)",120 mg QD (n/N = 4/4),1.2±0.2
same,Vss/F (mean±SD),120 mg QD (n/N = 4/4),1.3 ± 39.5 L
same,Accumulation ratio (Rac),after BID administration,1.8
same,Accumulation ratio (mean Rac),after repeated QD administration,1.1-1.5
same,AUC from time zero to 24 h post dose,"human, in vivo",approximately 35 918 h*ng/mL
same,AUC from time zero to the last measurable concentration,"human, in vivo",33 827 h*ng/mL
same,"AUC0-inf, mean±SD","human, in vivo, 2 mg",4361.8 ng·h/mL
same,"AUC0-t, mean±SD","human, in vivo, 2 mg",2753.5 ng·h/mL
same,CLss/F (mean±SD),"human, in vivo, 2 mg",0.7 L/h
same,"Cmax, mean±SD","human, in vivo, 2 mg",203.0 ng/mL
same,"Tmax, median (range)","human, in vivo, 2 mg",2.0 (2.0-2.0) h
same,"t½, median (range)","human, in vivo, 2 mg",16.0 (16.0-16.0) h
same,"AUC0-inf, mean±SD","human, in vivo, 5 mg",9655.4±11 022.2 h*ng/mL
same,"AUC0-t, mean±SD","human, in vivo, 5 mg",6013.7 ± 5649.0 ng·h/mL
same,CLss/F (mean±SD),"human, in vivo, 5 mg",1.6 ± 1.3 L/h
same,"Cmax, mean±SD","human, in vivo, 5 mg",470.7 ± 354.0 ng/mL
same,"Tmax, median (range)","human, in vivo, 5 mg",2.0 (2.0-2.0) h
same,"t½, median (range)","human, in vivo, 5 mg",10.3 (6.4-21.4) h
same,"AUC0-inf, mean±SD","human, in vivo, 10 mg",10 553.4±2657.5 h*ng/mL
same,"AUC0-t, mean±SD","human, in vivo, 10 mg",7506.4 ± 892.6 ng·h/mL
same,CLss/F (mean±SD),"human, in vivo, 10 mg",1.3 ± 0.2 L/h
same,"Cmax, mean±SD","human, in vivo, 10 mg",598.7 ± 67.9 ng/mL
same,"Tmax, median (range)","human, in vivo, 10 mg",4.0 (2.0-4.0) h
same,"t½, median (range)","human, in vivo, 10 mg",13.2 (9.4-16.8) h
same,"AUC0-inf, mean±SD","human, in vivo, 20 mg",22 122.4±18 526.0 h*ng/mL
same,"AUC0-t, mean±SD","human, in vivo, 20 mg",16 213.5±9863.9 h*ng/mL
same,CLss/F (mean±SD),"human, in vivo, 20 mg",1.6 ± 0.8 L/h
same,"Cmax, mean±SD","human, in vivo, 20 mg",1483.2 ± 487.8 ng/mL
same,"Tmax, median (range)","human, in vivo, 20 mg",2.0 (1.8-2.0) h
same,"t½, median (range)","human, in vivo, 20 mg",9.4 (5.5-17.5) h
same,"AUC0-inf, mean±SD","human, in vivo, 40 mg",22 437.1±5342.9 h*ng/mL
same,"AUC0-t, mean±SD","human, in vivo, 40 mg",19 566.5±3285.1 h*ng/mL
same,CLss/F (mean±SD),"human, in vivo, 40 mg",2.1 ± 0.4 L/h
same,"Cmax, mean±SD","human, in vivo, 40 mg",2013.3 ± 280.2 ng/mL
same,"Tmax, median (range)","human, in vivo, 40 mg",1.9 (1.8-2.0) h
same,"t½, median (range)","human, in vivo, 40 mg",7.5 (5.5-9.2) h
same,"AUC0-inf, mean±SD","human, in vivo, 50 mg",38 418.9±19 776.1 h*ng/mL
same,"AUC0-t, mean±SD","human, in vivo, 50 mg",17 959.6±5287.0 h*ng/mL
same,CLss/F (mean±SD),"human, in vivo, 50 mg",2.8 ± 0.8 L/h
same,"Cmax, mean±SD","human, in vivo, 50 mg",2152.5 ± 354.3 ng/mL
same,"Tmax, median (range)","human, in vivo, 50 mg",2.0 (1.9-3.7) h
same,"t½, median (range)","human, in vivo, 50 mg",9.7 (7.8-15.2) h
same,"AUC0-inf, mean±SD","human, in vivo, 60 mg",19 189.5±10 074.3 h*ng/mL
same,"AUC0-t, mean±SD","human, in vivo, 60 mg",17 777.2±8739.1 h*ng/mL
same,CLss/F (mean±SD),"human, in vivo, 60 mg",4.6 ± 3.6 L/h
same,"Cmax, mean±SD","human, in vivo, 60 mg",2056.0 ± 975.0 ng/mL
same,"Tmax, median (range)","human, in vivo, 60 mg",2.0 (1.9-3.9) h
same,"t½, median (range)","human, in vivo, 60 mg",5.8 (3.4-7.7) h
same,"AUC0-inf, mean±SD","human, in vivo, 80 mg",48 747.0±33 189.7 h*ng/mL
same,"AUC0-t, mean±SD","human, in vivo, 80 mg",37 727.0±21 476.1 h*ng/mL
same,CLss/F (mean±SD),"human, in vivo, 80 mg",2.9 ± 1.8 L/h
same,"Cmax, mean±SD","human, in vivo, 80 mg",3487.8 ± 1649.2 ng/mL
same,"Tmax, median (range)","human, in vivo, 80 mg",2.0 (1.9-3.8) h
same,"t½, median (range)","human, in vivo, 80 mg",9.7 (5.8-14.4) h
same,"AUC0-inf, mean±SD","human, in vivo, 100 mg",40 080.4±16 731.2 h*ng/mL
same,"AUC0-t, mean±SD","human, in vivo, 100 mg",33 827.1±12 273.6 h*ng/mL
same,CLss/F (mean±SD),"human, in vivo, 100 mg",3.5 ± 1.8 L/h
same,"Cmax, mean±SD","human, in vivo, 100 mg",3212.5 ± 765.1 ng/mL
same,"Tmax, median (range)","human, in vivo, 100 mg",1.9 (1.8-4.1) h
same,"t½, median (range)","human, in vivo, 100 mg",7.5 (5.3-16.1) h
same,"AUC0-inf, mean±SD","human, in vivo, 120 mg",87 799.1±11 6874.0 h*ng/mL
same,"AUC0-t, mean±SD","human, in vivo, 120 mg",62 737.2±74517.1 h*ng/mL
same,CLss/F (mean±SD),"human, in vivo, 120 mg",4.3 ± 3.3 L/h
same,"Cmax, mean±SD","human, in vivo, 120 mg",5107.5 ± 4893.2 ng/mL
same,"Tmax, median (range)","human, in vivo, 120 mg",2.0 (1.9-2.1) h
same,"t½, median (range)","human, in vivo, 120 mg",8.8 (6.0-15.2) h
